According to publication PMC3646032 (PLoS ONE, 2013):
Several values for one entry are separate records, joined by “and”; a condition that tells them apart may be missing. Identical values can stand only once.

How the values were obtained:
[1] = tested on: E. coli SKII (aroL-encoded); conditions: cited from earlier work
[2] = 1-COOH, in solution; cited from earlier work
[3] = tested on: E. coli SKI (aroK-encoded); conditions: cited from earlier work
[4] = tested on: EcSK (SK from Erwinia chrysanthemi); design: method as in PMID 11369852; conditions: cited from earlier work
MtSK [5] = molecular target: T1, MtSK (Mycobacterium tuberculosis, UniProt P9WPY3); experiment: Equilibrium fluorescence spectroscopy, intrinsic tyrosine fluorescence; assay type: binding; conditions: 25°C, pH 7.6
Protocol: MtSK intrinsic protein fluorescence measurements were carried out to both determine the order of substrate/product addition/dissociation on/from the catalytic site and distinguish the enzyme kinetic mechanism. As MtSK has no tryptophan residues, changes in protein tyrosine fluorescence (the polypeptide chain of MtSK has 3 Tyr residues) upon ligand binding were monitored. Fluorescence measurements were carried out in a RF-5301 PC Spectrofluorophotometer (Shimadzu) at 25°C. Excitation wavelength was 280 nm and emission spectra were collected from 300 to 500 nm. The maximum values of fluorescence intensity at 315 nm values were plotted as a function of increasing ligand concentration. Excitation and emission slits were 5 nm. As protein tyrosine typically has a low sensitivity (low molar absorption coefficient and low fluorescence quantum yield), MtSK concentration for binding experiments was 10 µM. […]
Equilibrium fluorescence spectroscopy data were fitted to Eq. 4, in which F is the observed fluorescence, F 0 is the initial fluorescence, F ∞ is the maximum change in fluorescence at saturating ligand (L) concentration, and K D represents the equilibrium dissociation constant for protein:ligand binary complex formation.

MtSK [6] = molecular target: T1, MtSK; experiment: biochemical; assay type: binding; conditions: 298.15 K, Hepes, pH 7.6
MtSK [7] = molecular target: T1, MtSK; conditions: cited from earlier work
[8] = molecular target: EcSK (aroL-encoded SK from Erwinia chrysanthemi); design: method as in PMID 11369852; conditions: cited from earlier work
[9] = molecular target: M. tuberculosis Shikimate Kinase (MtSK) (Mycobacterium tuberculosis, UniProt P9WPY3); assay type: biochemical
Sequence of M. tuberculosis Shikimate Kinase (MtSK) (P9WPY3 2-176): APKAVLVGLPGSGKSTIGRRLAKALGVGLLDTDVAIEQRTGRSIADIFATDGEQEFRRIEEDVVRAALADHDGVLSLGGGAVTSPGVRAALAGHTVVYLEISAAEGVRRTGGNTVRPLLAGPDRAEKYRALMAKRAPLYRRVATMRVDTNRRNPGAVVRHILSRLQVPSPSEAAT

T1 sequence (P9WPY3 2-176): as above

In the case of O=C(O)C1=C[C@@H](O)[C@@H](O)[C@H](O)C1 [SKH, [3R-(3α,4α,5β)]3,4,5-trihydroxy-1-cyclohexene-1-carboxylic acid], the “K SKH” value [1] is given as 200 µM, the pK a [2] is given as 4.47 and the “K SKH” value [3] is given as 20×10 ^3 µM. The KSKH [3] was 20 mM and the “K SKH” value [4] was 310 µM.

In the case of O=C(O)C1=C[C@@H](OP(=O)(O)O)[C@@H](O)[C@H](O)C1 [S3P, shikimate 3-phosphate], the “change in intrinsic protein fluorescence upon binding to free MtSK” value (MtSK [5]) is reported as “No change in protein fluorescence” and the “binding to free enzyme detected by ITC” value (MtSK [6]) is reported as “no binding”.

For Nc1ncnc2c1ncn2[C@@H]1O[C@H](COP(=O)(O)OP(=O)(O)OP(=O)(O)O)[C@@H](O)[C@H]1O [ATP, adenosine 5'-triphosphate], the “K MgATP” value [1] is listed as 160 µM, the “k cat/KMgATP” value [1] is listed as 200000 M⁻¹ s⁻¹ and the “-TΔS” value (MtSK [6]) is listed as 0.044 (±0.007) kcal mol^−1. The Kd (MtSK [6]) was 196 µM, the ΔG (MtSK [6]) was −5.1 (±0.8) kcal mol^−1 and the ΔH (MtSK [6]) was −5.1 (±0.3) kcal mol^−1. The ΔS (MtSK [6]) was −0.15 (±0.02) cal mol^−1 K^−1, the “K MgATP” value [4] was 620 µM and the “k cat/KMgATP” value [4] was 56000 M⁻¹ s⁻¹. For the same molecule, the “K MgATP” value (MtSK [7]) was 83 (±4) µM, the “k cat/KMgATP” value (MtSK [7]) was 530000 M⁻¹ s⁻¹ and the Kd [8] was 2600 µM. For the same molecule, the “K MgATP (Michaelis constant)” value ([9]; pH 7.6) was 112 µM and 112 (±4) µM and the “k cat/KMgATP” value ([9]; true steady-state, 25°C, pH 7.6) was 5.4 (±0.7)×10^5 M^−1 s^−1.

For Nc1ncnc2c1ncn2[C@@H]1O[C@H](COP(=O)(O)OP(=O)(O)O)[C@@H](O)[C@H]1O [ADP, adenosine 5′-diphosphate], the “-TΔS” value (MtSK [6]) was 7.9 (±0.2) kcal mol^−1, the Kd (MtSK [6]) was 562 µM and the ΔG (MtSK [6]) was −4.4 (±0.2) kcal mol^−1. For the same molecule, the ΔH (MtSK [6]) was −12.4 (±0.2) kcal mol^−1 and the ΔS (MtSK [6]) was −27 (±1) cal mol^−1 K^−1.

For c1c[nH]cn1 [imidazole], the “enzyme inhibition of MtSK activity” value ([9]; 50 mM imidazole in assay mixture) was “No enzyme inhibition” and the “enzyme velocity of MtSK” value ([9]; assay mixture containing 50 mM imidazole (9.2 U mL^−1 in its absence)) was 9.5 U mL^−1.
